Source: US20240325330A1, “NEW METHOD TO TREAT ACIDOSIS RELATED DISEASES WITH ACETOACETATE” (INSTITUT NATIONAL DE LA SANTÉ ET DE LA RECHERCHE MÉDICALE, priority 2021, published 2024)

Experiments:
[1] = tested on: human monocytes differentiated into macrophages under lactic acidosis (LA-Mφ); assay: Oxygen consumption rate (XF96 extracellular flux analyzer); type: cell-based; details: LA-Mφ+AcAc compared to LA-Mφ
Description: Peripheral blood mononuclear cells (PBMC) were obtained from healthy human volunteers (Blood collection center, Angers, France; agreement ANG-2017-01) by standard density-gradient centrifugation on lymphocyte separation medium (Eurobio, Courtaboeuf, France). CD14+ monocytes were then isolated by positive magnetic cell-sorting (Miltenyi Biotec, Bergisch Gladbach, Germany). Monocytes (1×10^6 cells/mL) were cultured in complete medium (CM) consisting of RPMI 1640 (Lonza, Verviers, Belgium) supplemented with 10% fetal calf serum (FCS) (Eurobio), 2 mM L-glutamine, 1 mM sodium pyruvate, 0.1 mM non-essential amino acids, 10 mM HEPES, 100 U/mL penicillin and 100 μg/mL streptomycin (all from Lonza) in the presence of 50 ng/mL GM-CSF (R&D Systems, Minneapolis, MN). […]
We used an XF96 extracellular flux analyzer (Agilent Technologies, Santa Clara, CA) to determine the bioenergetic profile of cells. […] Oxygen consumption rate (OCR) was recorded, to assess mitochondrial respiratory activity and glycolytic activity. OCR was recorded in basal conditions, and the cells were then treated sequentially with 2 μg/mL oligomycin, and 3 μM carbonyl cyanide p-(trifluoromethoxy) phenylhydrazone (FCCP) (both from Sigma-Aldrich). […]

[2] = tested on: human monocytes differentiated into macrophages under lactic acidosis (LA-Mφ); assay: Autophagy assessed by TEM or molecularly (LC3, p62 western blot, mRNA); type: cell-based; details: day 3 LA-Mφ+AcAc relative to Mφ; data not shown
Text: Peripheral blood mononuclear cells (PBMC) were obtained from healthy human volunteers (Blood collection center, Angers, France; agreement ANG-2017-01) by standard density-gradient centrifugation on lymphocyte separation medium (Eurobio, Courtaboeuf, France). CD14+ monocytes were then isolated by positive magnetic cell-sorting (Miltenyi Biotec, Bergisch Gladbach, Germany). […]
Cells were lysed in Trizol reagent (Life Technologies, Thermo Fisher Scientific), and total RNA was extracted with the RNeasy Micro kit (Qiagen, Hilden, Germany) and then reverse-transcribed with the Superscript II reverse transcriptase (Life Technologies). Levels of mRNA encoding the indicated proteins were then analyzed by subjecting the cDNA obtained by reverse transcription to qPCR. Relative quantification was performed by the 2^−ΔΔCT method, with RPS18, EF1A, TBP, RPL13A and PPIA as references. Results are expressed as relative mRNA levels.
Levels of LC3-I, LC3-II, p62, β-actin, AMPKα and pAMPKα were evaluated by western blotting. […] Protein loading was assessed by probing the membrane with a rabbit anti-β-actin antibody (Abcam, Cambridge, UK). Bound antibodies were detected by incubation with 1 μg/mL peroxidase-conjugated anti-rabbit or anti-mouse IgG antibody (Life Technologies) or with an anti-AMPK Ab, with the SuperSignal West Femto system (Thermo Fisher Scientific). […]

[3] = tested on: PBMC from septic shock patients; assay: Intracellular ATP in PBMC from septic shock patients; type: cell-based, human; details: 5 mM AcAc, normalized on 0.5 g/L glucose, FIG. 1B
Description: The intracellular levels of ATP in whole-cell lysates were determined with enzymatic assays (Abcam, Cambridge, UK), according to the manufacturer's instructions. ATP was quantified in (i) macrophages generated in the absence (Mφ) or presence of lactic acid (LA-Mφ) or of lactic acid and acetoacetate (LA-Mφ+AcAc), (ii) macrophages with or without depolarized mitochondria (“Depol” and “Pol” populations, respectively) isolated from day 3 LA-Mφ by flow cytometry using MitoTracker Green and MitoTracker Deep Red probes (purity>99%) and, (iii) PBMC isolated from septic shock patients (n=3) were cultured for 24 h in a medium containing 0.5 g/L glucose, supplemented with 5 mM of acetoacetate (AcAc) or with 2 g/L of glucose (Glc). Results are normalized on the condition 0.5 g/L glucose (None).
Peripheral blood mononuclear cells (PBMC) from septic patients and healthy subjects were purified by standard density-gradient centrifugation on lymphocyte separation medium (Eurobio, Courtaboeuf, France). […] After 24 h culture, the percentage of cells with depolarized mitochondria was assessed as described above. After 3 days of culture, intracellular ATP has been quantified as described above.

CC(=O)CC(=O)[O-].[Li+] [AcAc, lithium acetoacetate]
OCR consumption [1]: induced | autophagy [2]: not upregulated | levels of intracellular ATP [3]: increased
